Results: patent US12319672B2, “Alpha-D-galactopyranoside derivatives” (Idorsia Pharmaceuticals Ltd, priority 2019, dated 2025)

Legend:
human Gal-1 (hGal-1) = assay: Competitive binding assay: binding of biotinylated hGal-1 to microplate-adsorbed asialofetuin (ASF); conditions: Activities on hGal-1; mean values of several measurements
Summary of the method: (§1)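 Compounds diluted in DMSO competed with biotinylated hGal-3 or hGal-1 (300-1000 ng/mL) for binding to plate-adsorbed asialofetuin for 3 h at 4° C. Bound galectin was detected with streptavidin-peroxidase (80 ng/mL, 1 h, 4° C) and ABTS substrate; IC50 reported as mean of several measurements.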

human Gal-3 (hGal-3) = human Gal-3 (hGal-3) (Homo sapiens (Human), UniProt P17931); assay: Competitive binding assay: binding of biotinylated hGal-3 to microplate-adsorbed asialofetuin (ASF); conditions: Activity on hGal-3; mean values of several measurements
Chain of human Gal-3 (hGal-3) (P17931 whole entry): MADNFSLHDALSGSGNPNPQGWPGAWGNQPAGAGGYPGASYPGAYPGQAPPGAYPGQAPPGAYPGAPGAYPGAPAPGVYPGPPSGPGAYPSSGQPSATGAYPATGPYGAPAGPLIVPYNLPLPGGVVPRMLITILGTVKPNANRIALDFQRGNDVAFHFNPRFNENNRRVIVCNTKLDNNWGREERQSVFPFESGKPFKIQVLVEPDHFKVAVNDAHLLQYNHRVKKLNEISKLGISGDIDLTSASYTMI
Summary of the method: as §1

Chain of human Gal-1 (hGal-1) (P09382 2-135 limits assumed): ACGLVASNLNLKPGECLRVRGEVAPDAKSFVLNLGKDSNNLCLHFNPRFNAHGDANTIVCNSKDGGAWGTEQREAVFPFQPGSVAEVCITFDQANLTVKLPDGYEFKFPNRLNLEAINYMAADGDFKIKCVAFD

| IC50 (human Gal-1 (hGal-1)) | IC50 (human Gal-3 (hGal-3)) | SMILES |
| --- | --- | --- |
| 980 nM | 42 nM | CO[C@@H]1[C@@H](n2cc(-c3cc(F)c(F)c(F)c3)nn2)[C@@H](O)[C@@H](CO)O[C@@H]1Cc1cc(C2CCN(C(=O)NC3CC3)CC2)on1 [Example 3.59, N-cyclopropyl-4-(3-(((2R,3R,4S,5R,6R)-5-hydroxy-6-(hydroxymethyl)-3-methoxy-4-(4-(3,4,5-trifluorophenyl)-1H-1,2,3-triazol-1-yl)tetrahydro-2H-pyran-2-yl)methyl)isoxazol-5-yl)piperidine-1-carboxamide] |
| 520 nM | 21 nM | CO[C@@H]1[C@@H](n2cc(-c3cc(F)c(F)c(F)c3)nn2)[C@@H](O)[C@@H](CO)O[C@@H]1Cn1cc(C2CCN(C(=O)OCc3ccccc3)CC2)nn1 [Example 4.20, benzyl 4-(1-(((2R,3R,4S,5R,6R)-5-hydroxy-6-(hydroxymethyl)-3-methoxy-4-(4-(3,4,5-trifluorophenyl)-1H-1,2,3-triazol-1-yl)tetrahydro-2H-pyran-2-yl)methyl)-1H-1,2,3-triazol-4-yl)piperidine-1-carboxylate] |
| 2050 nM | 220 nM | CC(C)O[C@@H]1[C@@H](n2cc(-c3cc(F)c(F)c(F)c3)nn2)[C@@H](O)[C@@H](CO)O[C@@H]1Cc1cc(C2CCN(C(=O)OC(C)(C)C)CC2)on1 [Example 2.23, tert-butyl 4-(3-(((2R,3R,4S,5R,6R)-5-hydroxy-6-(hydroxymethyl)-3-isopropoxy-4-(4-(3,4,5-trifluorophenyl)-1H-1,2,3-triazol-1-yl)tetrahydro-2H-pyran-2-yl)methyl)isoxazol-5-yl)piperidine-1-carboxylate] |
| 610 nM | 20 nM | CO[C@@H]1[C@@H](n2cc(-c3cc(F)c(F)c(F)c3)nn2)[C@@H](O)[C@@H](CO)O[C@@H]1Cc1cc(C2CCN(S(=N)(=O)C(C)(C)C)CC2)on1 (mixture of isomers) [Example 3.56, (RS)-(2R,3R,4S,5R,6R)-2-(hydroxymethyl)-5-methoxy-6-((5-(1-(2-methylpropan-2-ylsulfonimidoyl)piperidin-4-yl)isoxazol-3-yl)methyl)-4-(4-(3,4,5-trifluorophenyl)-1H-1,2,3-triazol-1-yl)tetrahydro-2H-pyran-3-ol] |
| 770 nM | 45 nM | CO[C@@H]1[C@@H](n2cc(-c3cc(F)c(F)c(F)c3)nn2)[C@@H](O)[C@@H](CO)O[C@@H]1Cn1cc(C2CCN(S(=O)(=O)C(C)C)CC2)nn1 [Example 4.22, (2R,3R,4S,5R,6R)-2-(hydroxymethyl)-6-((4-(1-(isopropylsulfonyl)piperidin-4-yl)-1H-1,2,3-triazol-1-yl)methyl)-5-methoxy-4-(4-(3,4,5-trifluorophenyl)-1H-1,2,3-triazol-1-yl)tetrahydro-2H-pyran-3-ol] |
| 640 nM | 35 nM | CO[C@@H]1[C@@H](n2cc(-c3cc(F)c(F)c(F)c3)nn2)[C@@H](O)[C@@H](CO)O[C@@H]1CC1CN(C2CCN(S(=O)(=O)CC(C)C)CC2)C(=O)O1 (mixture of isomers) [Example 5.18, (RS)-5-(((2R,3R,4S,5R,6R)-5-hydroxy-6-(hydroxymethyl)-3-methoxy-4-(4-(3,4,5-trifluorophenyl)-1H-1,2,3-triazol-1-yl)tetrahydro-2H-pyran-2-yl)methyl)-3-(1-(isobutylsulfonyl)piperidin-4-yl)oxazolidin-2-one] |
| 780 nM | 110 nM | CO[C@@H]1[C@@H](n2cc(-c3ccc(F)c(F)c3F)nn2)[C@@H](O)[C@@H](CO)O[C@@H]1Cc1cc(C(C)(C)O)no1 [Example 2.61, (2R,3R,4S,5R,6R)-2-(hydroxymethyl)-6-((3-(2-hydroxypropan-2-yl)isoxazol-5-yl)methyl)-5-methoxy-4-(4-(2,3,4-trifluorophenyl)-1H-1,2,3-triazol-1-yl)tetrahydro-2H-pyran-3-ol] |
| 12700 nM | 740 nM | COC1CCC(N2C[C@@H](C[C@H]3O[C@H](CO)[C@H](O)[C@H](n4cc(-c5cc(F)c(F)c(F)c5)nn4)[C@H]3OC)OC2=O)CC1 (mixture of isomers) [Example 5.25, (RS)-5-(((2R,3R,4S,5R,6R)-5-hydroxy-6-(hydroxymethyl)-3-methoxy-4-(4-(3,4,5-trifluorophenyl)-1H-1,2,3-triazol-1-yl)tetrahydro-2H-pyran-2-yl)methyl)-3-((1r,4R)-4-methoxycyclohexyl)oxazolidin-2-one] |
| 3930 nM | 240 nM | CO[C@@H]1[C@@H](n2cc(-c3cc(F)c(F)c(F)c3)nn2)[C@@H](O)[C@@H](CO)O[C@@H]1Cn1cc(C2(C)CCCC2)nn1 [Example 4.49, (2R,3R,4S,5R,6R)-2-(hydroxymethyl)-5-methoxy-6-((4-(1-methylcyclopentyl)-1H-1,2,3-triazol-1-yl)methyl)-4-(4-(3,4,5-trifluorophenyl)-1H-1,2,3-triazol-1-yl)tetrahydro-2H-pyran-3-ol] |
| 790 nM | 180 nM | CO[C@@H]1[C@@H](n2cc(-c3cc(F)c(F)c(F)c3)nn2)[C@@H](O)[C@@H](CO)O[C@@H]1CC1CN(C2CCN(S(C)(=O)=O)CC2)C(=O)O1 (mixture of isomers) [Example 5.04, (RS)-5-(((2R,3R,4S,5R,6R)-5-hydroxy-6-(hydroxymethyl)-3-methoxy-4-(4-(3,4,5-trifluorophenyl)-1H-1,2,3-triazol-1-yl)tetrahydro-2H-pyran-2-yl)methyl)-3-(1-(methylsulfonyl)piperidin-4-yl)oxazolidin-2-one] |
| 2770 nM | 120 nM | CC(C)(C)OC(=O)N1CCC(C2=NOC(C[C@H]3O[C@H](CO)[C@H](O)[C@H](n4cc(-c5cc(F)c(F)c(F)c5)nn4)[C@H]3OCC(=O)N3CCOCC3)C2)CC1 (mixture of isomers) [Example 2.36, tert-butyl 4-((RS)-5-(((2R,3R,4S,5R,6R)-5-hydroxy-6-(hydroxymethyl)-3-(2-morpholino-2-oxoethoxy)-4-(4-(3,4,5-trifluorophenyl)-1H-1,2,3-triazol-1-yl)tetrahydro-2H-pyran-2-yl)methyl)-4,5-dihydroisoxazol-3-yl)piperidine-1-carboxylate] |
| 3040 nM | 700 nM | CO[C@@H]1[C@@H](n2cc(-c3cc(F)c(F)c(F)c3)nn2)[C@@H](O)[C@@H](CO)O[C@H]1Cc1cn(C2CCN(C(C)=O)CC2)nn1 [Example 4.12, 1-(4-(4-(((2S,3R,4S,5R,6R)-5-hydroxy-6-(hydroxymethyl)-3-methoxy-4-(4-(3,4,5-trifluorophenyl)-1H-1,2,3-triazol-1-yl)tetrahydro-2H-pyran-2-yl)methyl)-1H-1,2,3-triazol-1-yl)piperidin-1-yl)ethan-1-one] |

The remaining lines, values behind:

| SMILES | IC50 (human Gal-1 (hGal-1)) | IC50 (human Gal-3 (hGal-3)) |
| --- | --- | --- |
| CO[C@@H]1[C@@H](n2cc(-c3cc(F)c(F)c(F)c3)nn2)[C@@H](O)[C@@H](CO)O[C@@H]1Cc1cc(C2CCCC2)no1 [Ex 1.222] | 8000 nM | 110 nM |
| CO[C@@H]1[C@@H](n2cc(-c3ccc(F)c(F)c3F)nn2)[C@@H](O)[C@@H](CO)O[C@@H]1Cc1cc(C2CCCC2)on1 [Ex 1.235] | 1330 nM | 100 nM |
| CO[C@@H]1[C@@H](n2cc(-c3ccc(C)c(F)c3F)nn2)[C@@H](O)[C@@H](CO)O[C@@H]1Cc1cc(C(O)(c2ccccn2)C2CC2)on1 (stereo partly drawn) [Ex 1.317] | 9690 nM | 310 nM |
| CO[C@@H]1[C@@H](n2cc(-c3ccc(F)c(F)c3F)nn2)[C@@H](O)[C@@H](CO)O[C@@H]1Cc1cc(C2CCN(S(C)(=O)=O)CC2)on1 [Ex 1.157] | 94 nM | 30 nM |
| CO[C@@H]1[C@@H](n2cc(-c3cc(F)c(F)c(F)c3)nn2)[C@@H](O)[C@@H](CO)O[C@@H]1Cc1cc(C(C)(C)N)no1 [Ex 1.217] | 2030 nM | 180 nM |
| CO[C@@H]1[C@@H](n2cc(-c3ccc(C)c(F)c3F)nn2)[C@@H](O)[C@@H](CO)O[C@@H]1Cc1cc(C2CCCCC2)on1 [Ex 1.177] | 64800 nM | 180 nM |
| OC[C@H]1O[C@H](Cc2cc(C3CCN(c4nc5ccccc5s4)CC3)on2)[C@H](O)[C@@H](n2cc(-c3cc(F)c(F)c(F)c3)nn2)[C@H]1O [Ex 1.86] | > 100000 nM | 89 nM |
| CO[C@@H]1[C@@H](n2cc(-c3cc(F)c(F)c(F)c3)nn2)[C@@H](O)[C@@H](CO)O[C@@H]1Cc1cc(C2CCN(C(=O)OC(C)(C)C)CC2)on1 [Ex 1.50] | 570 nM | 63 nM |
| CO[C@@H]1[C@@H](n2cc(-c3ccc(F)c(F)c3F)nn2)[C@@H](O)[C@@H](CO)O[C@@H]1Cc1cc(C2(O)CCCCC2)on1 [Ex 1.233] | 1330 nM | 88 nM |
| CCOC(=O)N1CCC(c2cc(C[C@H]3O[C@H](CO)[C@H](O)[C@H](n4cc(-c5cc(F)c(Cl)c(F)c5)nn4)[C@H]3OC)no2)CC1 [Ex 1.199] | 5990 nM | 52 nM |
| COc1cc(F)c(F)cc1-c1cn([C@H]2[C@@H](O)[C@@H](CO)O[C@H](CC3CC(C4CCN(C(=O)OC(C)(C)C)CC4)=NO3)[C@@H]2O)nn1 (stereo partly drawn) [Ex 1.106] | 1530 nM | 490 nM |
| CO[C@@H]1[C@@H](n2cc(-c3ccc(Br)c(F)c3)nn2)[C@@H](O)[C@@H](CO)O[C@@H]1CC1CC(C2CCN(C(=O)OC(C)(C)C)CC2)=NO1 (stereo partly drawn) [Ex 1.117] | 1140 nM | 330 nM |
| CO[C@@H]1[C@@H](n2cc(-c3ccc(Cl)c(F)c3F)nn2)[C@@H](O)[C@@H](CO)O[C@@H]1Cc1cc(C(C)(CO)CCl)no1 (stereo partly drawn) [Ex 1.264] | 1610 nM | 71 nM |
| OC[C@H]1O[C@H](CC2CC(c3cccc(Cl)c3)=NO2)[C@H](O)[C@@H](n2cc(-c3cc(F)c(F)c(F)c3)nn2)[C@H]1O (stereo partly drawn) [Ex 1.18] | 14100 nM | 970 nM |
| CO[C@@H]1[C@@H](n2cc(-c3cc(F)c(F)c(F)c3)nn2)[C@@H](O)[C@@H](CO)O[C@@H]1Cc1cc(C(C)(C)C(F)F)no1 [Ex 1.303] | 550 nM | 140 nM |
